Reference: patent EP0790989B1, “CERTAIN SUBSTITUTED BENZYLAMINE DERIVATIVES; A NEW CLASS OF NEUROPEPTIDE Y1 SPECIFIC LIGANDS” (PFIZER INC., priority 1994, dated 1996)
Structures can show the parent of a compound that is named as a salt.

target: T1, human NPY1 receptors (Homo sapiens, UniProt P25929); test: Assay for Human NPY1 receptor binding activity ([125I]PYY binding to SK-N-MC cells); settings: IC50, [125I]PYY (~50 pM) binding to confluent SK-N-MC cells, 3 hour incubation at room temperature
T1 construct: SK-N-MC cells were purchased from ATCC (Rockville, MD); host or cells: SK-N-MC cells (human neuroepithelioma line), intact confluent monolayers
T1 sequence (P25929 1-384): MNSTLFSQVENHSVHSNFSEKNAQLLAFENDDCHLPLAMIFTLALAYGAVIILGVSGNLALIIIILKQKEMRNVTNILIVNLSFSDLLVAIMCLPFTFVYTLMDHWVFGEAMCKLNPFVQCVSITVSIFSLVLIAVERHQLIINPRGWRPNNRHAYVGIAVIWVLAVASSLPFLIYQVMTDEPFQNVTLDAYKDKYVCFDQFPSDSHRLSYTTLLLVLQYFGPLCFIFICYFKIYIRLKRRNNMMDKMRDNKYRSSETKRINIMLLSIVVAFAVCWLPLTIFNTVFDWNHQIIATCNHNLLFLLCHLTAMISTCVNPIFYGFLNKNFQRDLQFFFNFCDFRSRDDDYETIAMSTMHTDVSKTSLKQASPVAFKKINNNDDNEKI
Method: The procedure used is similar to that described by Gordon et al. (J. Neurochem. 55:506-513, 1990). SK-N-MC cells were purchased from ATCC (Rockville, MD). Cells were maintained at 37°C and 5% CO2 in Dulbecco's modified essential media (DMEM) with L-glutamine and 110 mg/L sodium pyruvate, which was supplemented with 10% fetal bovine serum and 25 mM HEPES (pH 7.3). The binding assay was performed in 24-well plates (Falcon) when the cells were confluent. Taking care to not disturb the cells on the bottom of the wells, the media was aspirated, and 0.5 ml of Dulbecco's phosphate buffered saline (DPBS) with calcium and magnesium were added to each well. The DPBS was aspirated and an additional aliquot of DPBS was added and aspirated. To begin the assay, binding buffer consisting of serum-free DMEM containing 0.5% bovine serum albumin, 0.1% bacitracin and 0.1 mM phenylmethylsulfonylfluoride was added to each well. The cells and the binding buffer preincubated for 30 minutes at room temperature, at which point the drug dilution and [^125I]PYY (NEN-DuPont: 50000 -75000 cpm ∼ 50 pM) were added to yield a final volume of 250 ul. Nonspecific binding was defined with […] NPY (porcine or human, Bachem California). After a 3 hour incubation at room temperature, the plates were then put on ice and the wells were aspirated. The cells were washed 4-6 times with 0.5 ml of ice-cold DPBS. A dilute solution of Triton X-100 (1%) was then added to each well. After approximately 1 hour at room temperature, an aliquot from each well was transferred to a 12x75 mm testtube, and the amount of [^125I] was quantitated on a gamma counter with an efficiency of 80-85% (Genesys 5000, Laboratory Technologies). IC50 values were calculated with the non-linear curve fitting program RS/1 (BBN Software Products Corp., Cambridge, MA).

How did the IC50 turn out when `CCOc1cccc(C2(N3CCN(c4ccccc4)CC3)CCC(CC)CC2)c1` (stereo not drawn) [Compound 21, 1-(3-Ethoxyphenyl)-1-(4-phenylpiperazin-1-yl)-4-ethyl-cyclohexane dihydrochloride] was run?
The IC50 was 525 nM.

For `CCOc1cccc(C2(N3CCN(c4ccccc4)CC3)CCC(CC)CC2)c1` (stereo not drawn) [Compound 20, 1-(3-Ethoxyphenyl)-1-(4-phenylpiperazin-1-yl)-4-ethyl-cyclohexane dihydrochloride], which IC50 is on record?
The IC50 was 76 nM.

Which IC50 does the source give for `COCOc1cccc(C2(N3CCN(c4ccccc4)CC3)CCC(C)CC2)c1` (stereo not drawn) [Compound 29, 1-(3-Methoxymethoxyphenyl)-1-(4-phenylpiperazin-1-yl)-4-methyl-cyclohexane dihydrochloride] here?
The IC50 was 39 nM.

`CCOc1cccc(C2(N3CCN(c4ccccc4)CC3)CCCCC2)c1` [Compound 9, 1-(3-Ethoxyphenyl)-1-(4-phenylpiperazin-1-yl)-cyclohexane dihydrochloride] was tested. Which IC50 did it give?
The IC50 was 137 nM.

For `CCOc1cccc(C2(N3CCN(c4ccccc4)CC3)CCC(C)CC2)c1` (stereo not drawn) [Compound 18, 1-(3-Ethoxyphenyl)-1-(4-phenylpiperazin-1-yl)-4-methyl-cyclohexane dihydrochloride], which IC50 is on record?
Its IC50 is 75 nM.

Which IC50 does the source give for `COc1cccc(C2(N3CCN(c4ccccc4)CC3)CCC(C)CC2)c1` (stereo not drawn) [Compound 13, 1-(3-Methoxyphenyl)-1-(4-phenylpiperazin-1-yl)-4-methyl-cyclohexane dihydrochloride] here?
Its IC50 is 67 nM.
